Results as given in patent US20230165251A1, “SUBSTITUTED TOLYL FUNGICIDES AND THEIR MIXTURES” (FMC Corporation, priority 2020, published 2023).
Read-outs that look alike come from different tables or passages of the source.

How the values were obtained:
[1] = system: Phakopsora pachyrhizi; assay: Test G: Compound 41 or 63 alone and in mixtures on soybean seedlings, Asian soybean rust, Colby synergy; type: in vivo; conditions: for pest or weed control at 0.346 ppm: Compound 41 0.346 ppm alone; for pest or weed control at 0.764 ppm: Compound 41 0.764 ppm alone; for pest or weed control at 0.403 ppm: Compound 63 0.403 ppm alone; for pest or weed control at 0.652 ppm: Compound 63 0.652 ppm alone
From the text: The general protocol for preparing test compositions for TEST G was as follows: Compound 41, Compound 63, N-(2,2,2-trifluoroethyl)-2-[[4-[5-(trifluoromethyl)-1,2,4-oxadiazol-3-yl]phenyl]methyl]-4-oxazolecarboxamide (b54.11a), ethyl 1-[[4-[[(1Z)-2-ethoxy-3,3,3-trifluoro-1-propen-1-yl]oxy]phenyl]methyl]-1H-pyrazole-4-carboxylate (b54.11c), ethyl 1-[[4-[[2-(trifluoromethyl)-1,3-dioxolan-2-yl]methoxy]phenyl]methyl]-1H-pyrazole-4-carboxylate (b54.11d), azoxystrobin, benzovindiflupyr, bixafen, chlorothalonil, cyproconazole, epoxiconazole, fenpropidin, fenpropimorph, fluindapyr, flutriafol, fluxapyroxad, inpyrfluxam, picoxystrobin, prothioconazole, pydiflumetofen, tebuconazole and trifloxystrobin were obtained as unformulated, technical-grade materials. Copper hydroxide and mancozeb was obtained as a formulated product marketed under the trademarks KOCIDE 3000 and MANZATE, respectively. Unformulated materials were first dissolved in acetone and then suspended at the desired concentration (in ppm) in acetone and purified water (50/50 mix by volume) containing 250 ppm of the surfactant Trem® 014 (polyhydric alcohol esters). Formulated materials were dispersed in sufficient water to give the desired concentration, and neither organic solvent nor surfactant was added to the suspension. The resulting test mixtures were then used in TEST G. The tests were run on four individual plants and the results reported as the mean average of the four plants.
The presence of a synergistic effect between two active ingredients was established with the aid of the Colby equation (see Colby, S. R. “Calculating Synergistic and Antagonistic Responses of Herbicide Combinations”, Weeds, (1967), 15, 20-22):
Using the method of Colby, the presence of a synergistic interaction between two active ingredients is established by first calculating the predicted activity, p, of the mixture based on activities of the two components applied alone. If p is lower than the experimentally established effect, synergism has occurred. In the equation above, A is the fungicidal activity in percentage control of one component applied alone at rate x. The B term is the fungicidal activity in percentage control of the second component applied at rate y. The equation estimates p, the expected fungicidal activity of the mixture of A at rate x with B at rate y if their effects are strictly additive and no interaction has occurred.
The test mixture was sprayed to the point of run-off on soybean seedlings. The following day the seedlings were inoculated with a spore suspension of Phakopsora pachyrhizi (the causal agent of Asian soybean rust) and incubated in a saturated atmosphere at 22° C. for 24 h and then moved to a growth chamber at 22° C. for 8 days, after which time visual disease ratings were made.
Results for TEST G are given below in Tables B-1 through J-1 for Compound 41, and Tables B-2 through J-2 for Compound 63. Each table corresponds to a set of evaluations performed together at the same time. In each table, a rating of 100 indicates 100% disease control and a rating of 0 indicates no disease control (relative to the controls). Columns labeled “Obsd” indicate the average of results observed from test run on four individual plants. Columns labeled “Exp” indicate the expected value for each treatment mixture using the Colby equation.

[2] = system: Alternaria solani; assay: Test F: preventive spray on tomato seedlings, tomato early blight; type: in vivo
From the text: General protocol for preparing test suspensions for Tests A-F: the test compounds were first dissolved in acetone in an amount equal to 3% of the final volume and then suspended at the desired concentration (in ppm) in acetone and purified water (50/50 mix by volume) containing 250 ppm of the surfactant PEG400 (polyhydric alcohol esters). The resulting test suspensions were then used in Tests A-F.
The test suspension was sprayed to the point of run-off on tomato seedlings. The following day the seedlings were inoculated with a spore suspension of Alternaria solani (the causal agent of tomato early blight) and incubated in a saturated atmosphere at 27° C. for 48 h, and then moved to a growth chamber at 20° C. for 3 days, after which time visual disease ratings were made.
A rating of 100 indicates 100% disease control and a rating of 0 indicates no disease control (relative to the controls). A dash (-) indicates the compound was not tested.

[3] = Phakopsora pachyrhizi, Table B-1, read-out: Test G Obsd
[4] = Phakopsora pachyrhizi, Table C-1, read-out: Test G Obsd
[5] = Phakopsora pachyrhizi, Table B-2, read-out: Test G Obsd
[6] = Phakopsora pachyrhizi, Table C-2, read-out: Test G Obsd

## Cn1cc(C(=O)Nc2cccc3c2[C@@H]2CC[C@H]3C2=C(Cl)Cl)c(C(F)F)n1 (racemic) [Benzovindiflupyr, benzovindiflupyr]
[1]; benzovindiflupyr alone 0.606 ppm
  Test G Obsd: 67%
[1]; benzovindiflupyr alone 0.980 ppm
  Test G Obsd: 67%

## Fc1ccc([C@]2(Cn3cncn3)O[C@H]2c2ccccc2Cl)cc1 (racemic) [Epoxiconazole, epoxiconazole]
[1]; Phakopsora pachyrhizi, epoxiconazole alone 46.795 ppm, read-out: Test G Obsd
  pest or weed control at 46.795 ppm: 23%
[1]; Phakopsora pachyrhizi, epoxiconazole alone 89.631 ppm, read-out: Test G Obsd
  pest or weed control at 89.631 ppm: 70%

## O=C(NCC(F)(F)F)c1coc(Cc2ccc(-c3noc(C(F)(F)F)n3)cc2)n1 [(b54.11a)]
[1]; Table B-1, (b54.11a) 0.471 ppm alone
  Test G Obsd: 59%
[1]; Table B-1, (b54.11a) 0.764 ppm alone
  Test G Obsd: 75%

## CO/C=C(/C(=O)OC)c1ccccc1Oc1cc(Oc2ccccc2C#N)ncn1 [Azoxystrobin, azoxystrobin]
[1]; azoxystrobin alone 95.873 ppm
  Test G Obsd: 70%
[1]; azoxystrobin alone 169.226 ppm
  Test G Obsd: 90%

## Cn1cc(C(=O)Nc2ccc(F)cc2-c2ccc(Cl)c(Cl)c2)c(C(F)F)n1 [Bixafen, bixafen]
[1]; Table C-1, bixafen 11.327 ppm alone
  Test G Obsd: 54%
[1]; Table C-1, bixafen 19.525 ppm alone
  Test G Obsd: 55%
[1]; Table C-2, bixafen 11.327 ppm alone
  Test G Obsd: 54%
[1]; Table C-2, bixafen 19.525 ppm alone
  Test G Obsd: 55%

## N#Cc1c(Cl)c(Cl)c(Cl)c(C#N)c1Cl [Chlorothalonil, chlorothalonil]
[1]; Phakopsora pachyrhizi, chlorothalonil alone 138.129 ppm, read-out: Test G Obsd
  pest or weed control at 138.129 ppm: 59%
[1]; Phakopsora pachyrhizi, chlorothalonil alone 222.081 ppm, read-out: Test G Obsd
  pest or weed control at 222.081 ppm: 85%

## COC(=O)NCc1cc(-c2ccn(-c3c(F)cc(Cl)cc3F)n2)ccc1C [Compound 6, methyl N-[[5-[1-(4-chloro-2,6-difluorophenyl)-1H-pyrazol-3-yl]-2-methylphenyl]methyl]carbamate]
[2]; Rate 10 ppm
  Test F disease control rating: 40%

## COC(=O)NCc1cc(-c2ccn(-c3c(F)cc(OC(F)F)cc3F)n2)ccc1C [Compound 15, methyl N-[[5-[1-[4-(difluoromethoxy)-2,6-difluorophenyl]-1H-pyrazol-3-yl]-2-methylphenyl]methyl]carbamate]
[2]; Rate 10 ppm
  Test F disease control rating: 0%

## COC(=O)NCc1cc(-c2ccn(-c3c(F)cc(C4CC4)cc3F)n2)ccc1C [Compound 41, methyl N-[[5-[1-(4-cyclopropyl-2,6-difluorophenyl)-1H-pyrazol-3-yl]-2-methylphenyl]methyl]carbamate]
[1]; [3]
  pest or weed control at 0.346 ppm: 29%
  pest or weed control at 0.764 ppm: 62%
[1]; [4]
  pest or weed control at 0.346 ppm: 19%
  pest or weed control at 0.764 ppm: 45%

## COC(=O)NCc1cc(-c2ccn(-c3c(F)cc(C(C)C)cc3F)n2)ccc1C [Compound 63, methyl N-[[5-[1-[2,6-difluoro-4-(1-methylethyl)phenyl]-1H-pyrazol-3-yl]-2-methylphenyl]methyl]carbamate]
[1]; [5]
  pest or weed control at 0.403 ppm: 34%
  pest or weed control at 0.652 ppm: 68%
[1]; [6]
  pest or weed control at 0.403 ppm: 15%
  pest or weed control at 0.652 ppm: 46%
[2]; Rate 10 ppm
  Test F disease control rating: 85%

## COC(=O)NCc1cc(-c2ccn(-c3c(F)cc(C(F)(F)F)cc3F)n2)ccc1C [Compound 64, methyl N-[[5-[1-[2,6-difluoro-4-(trifluoromethyl)phenyl]-1H-pyrazol-3-yl]-2-methylphenyl]methyl]carbamate]
[2]; Rate 10 ppm
  Test F disease control rating: 0%

## COC(=O)NCc1cc(-c2ncn(-c3c(F)cc([N+](=O)[O-])cc3F)n2)ccc1C [Compound 107]
[2]; Rate 250 ppm
  Test F disease control rating: 0%

## COC(=O)NCc1cc(-c2cnn(-c3c(F)cc([N+](=O)[O-])cc3F)n2)ccc1C [Compound 118, methyl N-[[5-[2-(2,6-difluoro-4-nitrophenyl)-2H-1,2,3-triazol-4-yl]-2-methylphenyl]methyl]carbamate]
[2]; Rate 250 ppm
  Test F disease control rating: 0%

## CC(C1CC1)C(O)(Cn1cncn1)c1ccc(Cl)cc1 (centres unmarked) [Cyproconazole, cyproconazole]
[1]; Phakopsora pachyrhizi, cyproconazole alone 37.333 ppm, read-out: Test G Obsd
  pest or weed control at 37.333 ppm: 44%
[1]; Phakopsora pachyrhizi, cyproconazole alone 64.883 ppm, read-out: Test G Obsd
  pest or weed control at 64.883 ppm: 68%

## CC(Cc1ccc(C(C)(C)C)cc1)CN1CCCCC1 (centres unmarked) [Fenpropidin, fenpropidin]
[1]; Phakopsora pachyrhizi, fenpropidin alone 78.393 ppm, read-out: Test G Obsd
  pest or weed control at 78.393 ppm: 45%
[1]; Phakopsora pachyrhizi, fenpropidin alone 161.740 ppm, read-out: Test G Obsd
  pest or weed control at 161.74 ppm: 68%

## CC(Cc1ccc(C(C)(C)C)cc1)CN1C[C@@H](C)O[C@@H](C)C1 (some centres unmarked) [Fenpropimorph, fenpropimorph]
[1]; Phakopsora pachyrhizi, fenpropimorph alone 242.823 ppm, read-out: Test G Obsd
  pest or weed control at 242.823 ppm: 33%
[1]; Phakopsora pachyrhizi, fenpropimorph alone 458.587 ppm, read-out: Test G Obsd
  pest or weed control at 458.587 ppm: 44%

## CC1CC(C)(C)c2c(F)ccc(NC(=O)c3cn(C)nc3C(F)F)c21 (centres unmarked) [Fluindapyr, fluindapyr]
[1]; Table C-1, fluindapyr 8.820 ppm alone
  Test G Obsd: 61%
[1]; Table C-1, fluindapyr 15.230 ppm alone
  Test G Obsd: 79%
[1]; Table C-2, fluindapyr 8.820 ppm alone
  Test G Obsd: 61%
[1]; Table C-2, fluindapyr 15.230 ppm alone
  Test G Obsd: 79%

## OC(Cn1cncn1)(c1ccc(F)cc1)c1ccccc1F (centres unmarked) [Flutriafol, flutriafol]
[1]; Phakopsora pachyrhizi, flutriafol alone 544.265 ppm, read-out: Test G Obsd
  pest or weed control at 544.265 ppm: 13%
[1]; Phakopsora pachyrhizi, flutriafol alone 1124.021 ppm, read-out: Test G Obsd
  pest or weed control at 1124.02 ppm: 52%

## Cn1cc(C(=O)Nc2ccccc2-c2cc(F)c(F)c(F)c2)c(C(F)F)n1 [Fluxapyroxad, fluxapyroxad]
[1]; Table C-1, fluxapyroxad 2.757 ppm alone
  Test G Obsd: 19%
[1]; Table C-1, fluxapyroxad 4.748 ppm alone
  Test G Obsd: 52%
[1]; Table C-2, fluxapyroxad 2.757 ppm alone
  Test G Obsd: 19%
[1]; Table C-2, fluxapyroxad 4.748 ppm alone
  Test G Obsd: 52%

## C[C@@H]1CC(C)(C)c2cccc(NC(=O)c3cn(C)nc3C(F)F)c21 [Inpyrfluxam, inpyrfluxam]
[1]; inpyrfluxam alone 0.448 ppm
  Test G Obsd: 56%
[1]; inpyrfluxam alone 1.059 ppm
  Test G Obsd: 79%

## CO/C=C(/C(=O)OC)c1ccccc1COc1cccc(C(F)(F)F)n1 [Picoxystrobin, picoxystrobin]
[1]; picoxystrobin alone 20.596 ppm
  Test G Obsd: 63%
[1]; picoxystrobin alone 33.856 ppm
  Test G Obsd: 79%
[1]; picoxystrobin alone 33.865 ppm
  Test G Obsd: 79%

## OC(Cc1ccccc1Cl)(Cn1nc[nH]c1=S)C1(Cl)CC1 (centres unmarked) [Prothioconazole, prothioconazole]
[1]; Phakopsora pachyrhizi, prothioconazole alone 10.165 ppm, read-out: Test G Obsd
  pest or weed control at 10.165 ppm: 7%
[1]; Phakopsora pachyrhizi, prothioconazole alone 16.339 ppm, read-out: Test G Obsd
  pest or weed control at 16.339 ppm: 65%

## CON(C(=O)c1cn(C)nc1C(F)F)C(C)Cc1c(Cl)cc(Cl)cc1Cl (centres unmarked) [Pydiflumetofen, pydiflumetofen]
[1]; pydiflumetofen alone 41.364 ppm
  Test G Obsd: 49%
[1]; pydiflumetofen alone 70.950 ppm
  Test G Obsd: 0%
[1]; pydiflumetofen alone 128.793 ppm
  Test G Obsd: 36%
[1]; pydiflumetofen alone 135.850 ppm
  Test G Obsd: 73%

## CC(C)(C)C(O)(CCc1ccc(Cl)cc1)Cn1cncn1 (centres unmarked) [Tebuconazole, tebuconazole]
[1]; Phakopsora pachyrhizi, tebuconazole alone 486.921 ppm, read-out: Test G Obsd
  pest or weed control at 486.921 ppm: 30%
[1]; Phakopsora pachyrhizi, tebuconazole alone 841.166 ppm, read-out: Test G Obsd
  pest or weed control at 841.166 ppm: 55%

## CON=C(C(=O)OC)c1ccccc1CON=C(C)c1cccc(C(F)(F)F)c1 [Trifloxystrobin, trifloxystrobin]
[1]; Phakopsora pachyrhizi, trifloxystrobin alone 20.511 ppm, read-out: Test G Obsd
  pest or weed control at 20.511 ppm: 46%
[1]; Phakopsora pachyrhizi, trifloxystrobin alone 35.310 ppm, read-out: Test G Obsd
  pest or weed control at 35.31 ppm: 76%
